In ChEMBL document CHEMBL3351764, “Design, synthesis and biological activity of flavonoid derivatives as selective agonists for neuromedin U 2 receptor” (Bioorg Med Chem, 2014):
Calls of active or inactive are those of the source. The rule behind the calls is not given here.

Legend:
[1] = molecular target: Melanocyte-stimulating hormone receptor (Homo sapiens) (UniProt Q01726); assay: Agonist activity at human MC1 receptor at 100 uM to 5 mM
[2] = molecular target: Adrenocorticotropic hormone receptor (Homo sapiens) (UniProt Q01718); assay: Agonist activity at human MC2 receptor at 100 uM to 5 mM
Sequence of Adrenocorticotropic hormone receptor (Homo sapiens) (Q01718 whole entry): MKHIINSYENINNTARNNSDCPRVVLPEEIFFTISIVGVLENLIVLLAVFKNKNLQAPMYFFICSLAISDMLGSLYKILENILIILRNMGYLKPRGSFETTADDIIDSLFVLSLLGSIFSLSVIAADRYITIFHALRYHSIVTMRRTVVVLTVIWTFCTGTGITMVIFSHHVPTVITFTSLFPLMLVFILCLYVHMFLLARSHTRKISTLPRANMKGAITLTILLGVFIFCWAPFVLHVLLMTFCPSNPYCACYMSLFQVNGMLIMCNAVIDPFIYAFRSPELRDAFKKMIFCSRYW

[3] = molecular target: Melanocortin receptor 3 (Homo sapiens) (UniProt P41968); assay: Agonist activity at human MC3 receptor at 100 uM to 5 mM
Sequence of Melanocortin receptor 3 (Homo sapiens) (P41968 whole entry): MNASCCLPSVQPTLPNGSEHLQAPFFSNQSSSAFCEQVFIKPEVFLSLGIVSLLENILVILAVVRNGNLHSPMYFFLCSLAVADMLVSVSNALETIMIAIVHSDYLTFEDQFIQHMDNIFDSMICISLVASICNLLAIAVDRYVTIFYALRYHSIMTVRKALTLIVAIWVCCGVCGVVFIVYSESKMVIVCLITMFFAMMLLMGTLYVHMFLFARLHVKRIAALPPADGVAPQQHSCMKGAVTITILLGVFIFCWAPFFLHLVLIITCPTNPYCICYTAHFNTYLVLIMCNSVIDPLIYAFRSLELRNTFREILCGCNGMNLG

[4] = molecular target: Adrenocorticotropic hormone receptor (Mus musculus) (UniProt Q64326); assay: Agonist activity at mouse MC2 receptor at 100 uM to 5 mM
Sequence of Adrenocorticotropic hormone receptor (Mus musculus) (Q64326 whole entry): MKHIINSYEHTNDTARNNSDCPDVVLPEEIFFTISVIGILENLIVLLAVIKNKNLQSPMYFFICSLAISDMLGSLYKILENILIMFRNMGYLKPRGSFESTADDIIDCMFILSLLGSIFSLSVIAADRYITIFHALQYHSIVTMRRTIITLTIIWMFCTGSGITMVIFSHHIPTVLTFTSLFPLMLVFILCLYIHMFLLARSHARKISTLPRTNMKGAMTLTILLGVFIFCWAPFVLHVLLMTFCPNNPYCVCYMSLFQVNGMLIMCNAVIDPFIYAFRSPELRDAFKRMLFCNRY

[5] = molecular target: Melanocortin receptor 4 (Mus musculus) (UniProt P56450); assay: Agonist activity at mouse MC4 receptor at 100 uM to 5 mM
Sequence of Melanocortin receptor 4 (Mus musculus) (P56450 whole entry): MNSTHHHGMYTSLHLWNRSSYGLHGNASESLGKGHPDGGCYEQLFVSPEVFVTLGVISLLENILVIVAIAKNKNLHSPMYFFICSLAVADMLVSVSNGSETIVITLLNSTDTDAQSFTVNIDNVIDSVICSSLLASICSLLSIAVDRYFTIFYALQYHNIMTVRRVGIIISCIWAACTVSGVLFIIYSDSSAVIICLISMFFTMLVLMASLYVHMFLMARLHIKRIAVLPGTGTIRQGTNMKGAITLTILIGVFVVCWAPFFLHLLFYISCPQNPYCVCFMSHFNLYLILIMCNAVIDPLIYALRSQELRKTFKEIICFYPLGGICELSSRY

[6] = molecular target: Melanocortin receptor 5 (Mus musculus) (UniProt P41149); assay: Agonist activity at mouse MC5 receptor at 100 uM to 5 mM
Sequence of Melanocortin receptor 5 (Mus musculus) (P41149 whole entry): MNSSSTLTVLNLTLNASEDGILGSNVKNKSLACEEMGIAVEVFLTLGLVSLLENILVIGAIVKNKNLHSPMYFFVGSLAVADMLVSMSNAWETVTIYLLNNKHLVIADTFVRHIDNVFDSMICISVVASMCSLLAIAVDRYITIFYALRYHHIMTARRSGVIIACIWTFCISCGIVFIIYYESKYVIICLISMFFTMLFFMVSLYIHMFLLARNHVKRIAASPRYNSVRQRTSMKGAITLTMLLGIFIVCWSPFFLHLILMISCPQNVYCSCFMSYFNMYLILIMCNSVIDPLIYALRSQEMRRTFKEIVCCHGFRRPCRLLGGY

[7] = molecular target: T1, 5-hydroxytryptamine receptor 2C (Homo sapiens) (UniProt P28335); assay: Agonist activity at human 5HT2C receptor at 100 uM to 5 mM
T1 sequence (whole entry): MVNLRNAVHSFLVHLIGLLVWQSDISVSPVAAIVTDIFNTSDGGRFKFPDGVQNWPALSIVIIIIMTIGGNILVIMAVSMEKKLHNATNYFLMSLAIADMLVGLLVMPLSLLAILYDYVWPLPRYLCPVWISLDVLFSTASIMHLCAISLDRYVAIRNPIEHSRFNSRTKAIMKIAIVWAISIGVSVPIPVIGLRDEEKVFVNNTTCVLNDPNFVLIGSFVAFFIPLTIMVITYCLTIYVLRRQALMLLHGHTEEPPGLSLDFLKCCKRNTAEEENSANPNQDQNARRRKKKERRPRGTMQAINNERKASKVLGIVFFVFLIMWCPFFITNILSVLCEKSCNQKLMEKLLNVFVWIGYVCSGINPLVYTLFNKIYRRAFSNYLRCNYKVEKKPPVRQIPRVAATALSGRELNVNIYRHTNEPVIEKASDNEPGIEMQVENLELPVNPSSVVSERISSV

[8] = molecular target: T2, Muscarinic acetylcholine receptor M1 (Homo sapiens) (UniProt P11229); assay: Agonist activity at human M1 receptor at 100 uM to 5 mM
T2 sequence (whole entry): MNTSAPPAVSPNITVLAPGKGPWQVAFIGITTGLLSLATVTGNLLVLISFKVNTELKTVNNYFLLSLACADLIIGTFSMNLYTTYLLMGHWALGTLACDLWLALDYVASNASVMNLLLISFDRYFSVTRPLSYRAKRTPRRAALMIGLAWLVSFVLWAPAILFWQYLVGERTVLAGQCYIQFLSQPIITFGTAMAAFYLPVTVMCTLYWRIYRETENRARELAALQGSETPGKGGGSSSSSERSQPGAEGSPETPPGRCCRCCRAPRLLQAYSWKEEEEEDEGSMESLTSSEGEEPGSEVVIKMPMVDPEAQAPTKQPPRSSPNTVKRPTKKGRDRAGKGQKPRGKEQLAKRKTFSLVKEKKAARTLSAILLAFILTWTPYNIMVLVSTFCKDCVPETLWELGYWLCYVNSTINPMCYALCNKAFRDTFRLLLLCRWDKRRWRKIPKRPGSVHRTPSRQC

[9] = molecular target: D(1A) dopamine receptor (Homo sapiens) (UniProt P21728); assay: Agonist activity at human D1 receptor at 100 uM to 5 mM
Sequence of D(1A) dopamine receptor (Homo sapiens) (P21728 whole entry): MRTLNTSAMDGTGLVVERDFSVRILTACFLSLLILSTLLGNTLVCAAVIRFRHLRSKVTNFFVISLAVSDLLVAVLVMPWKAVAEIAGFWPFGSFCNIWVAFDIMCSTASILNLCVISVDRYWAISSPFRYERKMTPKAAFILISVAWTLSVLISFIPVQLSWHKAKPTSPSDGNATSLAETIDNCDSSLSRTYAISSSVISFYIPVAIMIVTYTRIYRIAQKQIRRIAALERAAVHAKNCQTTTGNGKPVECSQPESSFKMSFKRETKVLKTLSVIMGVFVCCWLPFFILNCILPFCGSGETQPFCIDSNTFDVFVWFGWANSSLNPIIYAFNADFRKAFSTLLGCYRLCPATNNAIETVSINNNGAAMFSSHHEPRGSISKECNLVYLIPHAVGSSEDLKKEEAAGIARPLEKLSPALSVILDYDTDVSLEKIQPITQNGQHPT

[10] = molecular target: D(1B) dopamine receptor (Homo sapiens) (UniProt P21918); assay: Agonist activity at human D5 receptor at 100 uM to 5 mM
Sequence of D(1B) dopamine receptor (Homo sapiens) (P21918 whole entry): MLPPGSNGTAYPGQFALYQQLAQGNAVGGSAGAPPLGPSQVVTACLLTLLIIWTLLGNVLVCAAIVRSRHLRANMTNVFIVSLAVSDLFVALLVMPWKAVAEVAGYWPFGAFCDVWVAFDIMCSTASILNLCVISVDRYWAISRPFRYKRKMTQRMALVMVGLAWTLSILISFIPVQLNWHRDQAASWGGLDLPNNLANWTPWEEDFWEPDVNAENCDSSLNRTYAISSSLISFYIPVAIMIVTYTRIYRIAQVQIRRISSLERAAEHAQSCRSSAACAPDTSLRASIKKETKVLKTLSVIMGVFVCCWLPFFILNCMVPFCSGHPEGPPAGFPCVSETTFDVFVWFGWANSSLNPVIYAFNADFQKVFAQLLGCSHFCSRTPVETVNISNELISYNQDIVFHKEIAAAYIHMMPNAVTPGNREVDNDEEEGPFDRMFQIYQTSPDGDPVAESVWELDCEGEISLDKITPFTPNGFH

[11] = molecular target: Adenosine receptor A2a (Homo sapiens) (UniProt P29274); assay: Agonist activity at human A2a receptor at 100 uM to 5 mM
Sequence of Adenosine receptor A2a (Homo sapiens) (P29274 whole entry): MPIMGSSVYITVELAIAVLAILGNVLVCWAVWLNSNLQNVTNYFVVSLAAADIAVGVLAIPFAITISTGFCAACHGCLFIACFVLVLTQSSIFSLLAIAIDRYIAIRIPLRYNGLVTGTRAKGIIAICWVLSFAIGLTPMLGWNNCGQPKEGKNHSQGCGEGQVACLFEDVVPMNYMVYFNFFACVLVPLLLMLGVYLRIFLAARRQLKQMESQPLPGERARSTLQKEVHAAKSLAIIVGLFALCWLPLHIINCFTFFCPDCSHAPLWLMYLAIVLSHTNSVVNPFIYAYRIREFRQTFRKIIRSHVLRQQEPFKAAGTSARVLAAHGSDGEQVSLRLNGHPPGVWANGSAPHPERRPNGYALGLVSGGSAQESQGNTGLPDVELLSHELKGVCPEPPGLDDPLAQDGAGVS

[12] = molecular target: T3, Parathyroid hormone/parathyroid hormone-related peptide receptor (Homo sapiens) (UniProt Q03431); assay: Agonist activity at human PTH receptor at 100 uM to 5 mM
T3 sequence (whole entry): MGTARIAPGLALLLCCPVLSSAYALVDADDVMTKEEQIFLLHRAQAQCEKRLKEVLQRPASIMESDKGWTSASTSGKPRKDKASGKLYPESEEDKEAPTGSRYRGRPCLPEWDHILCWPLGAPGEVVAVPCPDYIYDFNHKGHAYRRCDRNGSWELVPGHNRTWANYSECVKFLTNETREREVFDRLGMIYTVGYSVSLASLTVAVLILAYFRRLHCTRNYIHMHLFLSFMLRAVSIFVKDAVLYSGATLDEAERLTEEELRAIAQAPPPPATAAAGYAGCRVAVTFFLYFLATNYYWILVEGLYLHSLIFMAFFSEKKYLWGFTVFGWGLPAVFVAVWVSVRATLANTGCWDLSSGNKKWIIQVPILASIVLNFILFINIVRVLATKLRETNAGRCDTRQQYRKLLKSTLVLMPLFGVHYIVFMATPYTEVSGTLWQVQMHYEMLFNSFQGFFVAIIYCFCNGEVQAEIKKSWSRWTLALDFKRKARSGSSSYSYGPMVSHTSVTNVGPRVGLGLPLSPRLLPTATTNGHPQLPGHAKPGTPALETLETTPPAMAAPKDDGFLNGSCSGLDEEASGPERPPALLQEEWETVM

[13] = molecular target: T4, Neuropeptide Y receptor type 5 (Homo sapiens) (UniProt Q15761); assay: Agonist activity at human NPY5 receptor at 100 uM to 5 mM
T4 sequence (whole entry): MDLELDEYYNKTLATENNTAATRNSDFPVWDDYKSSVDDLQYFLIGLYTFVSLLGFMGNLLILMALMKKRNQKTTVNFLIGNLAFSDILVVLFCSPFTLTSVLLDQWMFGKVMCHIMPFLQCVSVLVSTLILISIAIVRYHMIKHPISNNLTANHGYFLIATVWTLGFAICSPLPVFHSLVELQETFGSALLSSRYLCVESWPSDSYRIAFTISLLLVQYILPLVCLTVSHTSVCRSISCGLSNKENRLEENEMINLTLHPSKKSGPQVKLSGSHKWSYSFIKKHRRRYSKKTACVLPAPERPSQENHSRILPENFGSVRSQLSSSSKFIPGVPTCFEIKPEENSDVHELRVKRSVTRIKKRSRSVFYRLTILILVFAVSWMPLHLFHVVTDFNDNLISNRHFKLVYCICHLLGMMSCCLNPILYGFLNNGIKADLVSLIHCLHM

Sequence of Melanocyte-stimulating hormone receptor (Homo sapiens) (Q01726 whole entry, looked up): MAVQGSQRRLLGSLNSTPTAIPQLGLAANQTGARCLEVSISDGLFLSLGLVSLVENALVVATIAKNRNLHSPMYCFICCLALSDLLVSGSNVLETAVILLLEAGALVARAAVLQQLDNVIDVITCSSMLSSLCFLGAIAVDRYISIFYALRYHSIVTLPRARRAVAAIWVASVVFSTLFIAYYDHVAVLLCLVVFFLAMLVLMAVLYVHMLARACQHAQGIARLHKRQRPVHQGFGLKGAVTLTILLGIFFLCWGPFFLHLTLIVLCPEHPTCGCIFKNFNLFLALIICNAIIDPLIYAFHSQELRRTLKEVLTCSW

Row | SMILES | Activity [1] | Activity [2] | Activity [3] | Activity [4] | Activity [5] | Activity [6] | Activity [7] | Activity [8] | Activity [9] | Activity [10] | Activity [11] | Activity [12] | Activity [13]
1 | COc1ccc(C2C=Cc3ccccc3O2)cc1O (racemic) | inactive | inactive | inactive | inactive | inactive | inactive | inactive | inactive | inactive | inactive | inactive | inactive | inactive
2 | O=c1cc(-c2ccc(O)cc2)oc2ccccc12 | inactive | inactive | inactive | inactive | inactive | inactive | inactive | inactive | inactive | inactive | inactive | inactive | inactive
3 | O=c1c(O)c(-c2ccc(O)c(O)c2)oc2ccccc12 | inactive | inactive | inactive | inactive | inactive | inactive | inactive | inactive | inactive | inactive | inactive | inactive | inactive

Further lines, results first:

Row | Activity [1] | Activity [2] | Activity [3] | Activity [4] | Activity [5] | Activity [6] | Activity [7] | Activity [8] | Activity [9] | Activity [10] | Activity [11] | Activity [12] | Activity [13] | SMILES
4 | inactive | inactive | inactive | inactive | inactive | inactive | inactive | inactive | inactive | inactive | inactive | inactive | inactive | O=c1c(OCCO)c(-c2cc(Br)ccc2F)oc2ccccc12
5 | inactive | inactive | inactive | inactive | inactive | inactive | inactive | inactive | inactive | inactive | inactive | inactive | inactive | COc1cc(-c2oc3ccccc3c(=O)c2O)ccc1O
6 | inactive | inactive | inactive | inactive | inactive | inactive | inactive | inactive | inactive | inactive | inactive | inactive | inactive | CN(C)c1ccc(C2C=Cc3ccccc3O2)cc1 (racemic)
